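Briefly, cells in 96-well plates were exposed to five compound concentrations for 48 h, and endpoints were estimated by linear interpolation. GI50 is the concentration that inhibits growth by half. TGI: total growth inhibition.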

Test in all cases: inhibition of tumour cell growth, NCI panel, 48 h
Assay [1] relates to COLO 205 colon.
Assay [2] concerns HCT-116 colon.
Assay [3] deals with HL-60(TB) leukemia.
For assay [4], the system named is OVCAR-3 ovarian.
Assay [5] concerns OVCAR-5 ovarian.
Assay [6] deals with SK-MEL-5 melanoma.
Assay [7] relates to SN12C renal.
Assay [8] relates to UACC-62 melanoma.
For assay [9], the system named is UO-31 renal.

`CC(=O)O[C@H]1C=CC23OC(=O)[C@]1(C)[C@H]2[C@H](C(=O)O)C12CC(=O)[C@@](CO)(CC[C@H]13)C2`: the TGI in assay [1], in assay [2], in assay [3], in assay [4], in [5] and in assay [6] was more than 100 µM throughout. Besides, the TGI in [7], in assay [8] and in assay [9] was more than 100 µM in each case.
Consider `O=C(/C(=C/c1ccccc1)c1ccccc1)N1c2ccccc2CC1c1c[nH]c2ccccc12` (stereo unspecified), for which the TGI is 24.7 µM in assay [1]; more than 100 µM in assay [2]; more than 100 µM in [3]; 89.6 µM in [4]; more than 100 µM in [5]; more than 100 µM in [6]. Moreover, the TGI in [7], in assay [8] and in [9] was more than 100 µM throughout.
As for `C#CCN(C)C(=O)N(CC#C)N=O`, the TGI in assay [1], in assay [2], in assay [3], in assay [4], in [5] and in assay [6] was more than 100 µM each time. In addition, the TGI in [7], in assay [8] and in assay [9] was more than 100 µM each time.
For the molecule `COC(=O)C1CC(C(=O)OC)c2nc3cc(C)c(C)cc3nc21` (stereo unspecified), the TGI in assay [1], in [3], in assay [4], in assay [5], in assay [6] and in assay [7] was more than 100 µM throughout. Moreover, the TGI in assay [8] and in [9] was more than 100 µM in each case.
As to `C[N+](C)(C)CC1CCCC/C1=N\O` (stereo unspecified), the TGI in assay [1], in [2], in assay [3], in assay [4], in assay [5] and in assay [7] was more than 100 µM in each case. The TGI in assay [8] and in assay [9] was more than 100 µM in each case.
As for `C[n+]1c(N)n(C(=O)OCc2ccccc2)c(=O)c2c1ncn2C(=O)OCc1ccccc1`, the TGI in assay [1], in assay [2], in [3], in [4], in assay [5] and in assay [6] was more than 100 µM each time. The figures for the TGI in assay [7], in assay [8] and in assay [9] were more than 100 µM, more than 100 µM and 62.9 µM, respectively.
`Cn1ccnc1C[N-]Cc1nccn1C.O=[N+]([O-])[O-].O=[N+]([O-])[O-].[Cu+2]`: the GI50 in [1], in assay [2], in assay [3], in assay [4], in [6] and in assay [7] was more than 100 µM in each case. For the same molecule, the GI50 in assay [8] was 25.8 µM. For the same molecule, the TGI in assay [1], in assay [2], in [3], in assay [4], in [6] and in assay [7] was more than 100 µM throughout. Also, the TGI in assay [8] is more than 100 µM.
Regarding `CN(C)CCNc1nc(-c2cccs2)cc(-c2cccs2)n1`, the TGI in assay [1] was found to be 27.9 µM; in [2], 23.4 µM; in [4], 48.7 µM; in [5] it was 23.9 µM; in [6], 29.6 µM; in assay [7], 27.4 µM. The TGI in [8] amounted to 37.4 µM; in assay [9], 23.6 µM.
Turning to `COc1ccc(C2=NOP(c3ccccc3)(c3ccccc3)(c3ccccc3)C2)cc1`, the TGI in assay [1] was 23.5 µM; in assay [2] it was 21.4 µM; in [3], 14 µM; in assay [4], more than 85.5 µM; in assay [5] it was more than 75.9 µM; in assay [6], 28.8 µM. The TGI in assay [7] was more than 100 µM; in [8], 53.2 µM; in assay [9] it was more than 100 µM.
Regarding `Cc1ccc(NC(=O)CCC(=O)C(C#N)c2ccccc2)cc1C` (stereo unspecified), the TGI in assay [1], in assay [2], in assay [3], in [4], in assay [5] and in assay [6] was more than 100 µM throughout. In addition, the TGI in [7], in assay [8] and in assay [9] was more than 100 µM each time.
On to `COc1ccc2nc3cccc(C(=O)NCCN(C)C)c3nc2c1`, for which the TGI in [1] was more than 24.3 µM; in assay [2], 2.6 µM; in assay [3] it was 4.89 µM; in assay [4], 5.89 µM; in assay [5] it was 6.17 µM; in assay [7], 4.93 µM. In [9], the TGI was more than 100 µM.
For `CCOC(=O)/N=c1/nc(N(C)C)ss1`, the TGI in assay [2], in assay [3], in assay [5], in [6], in [7] and in [8] was more than 100 µM each time. In assay [9], this molecule displayed a TGI of more than 100 µM.
Take `NCP(=O)(O)OCC(=O)O`: the TGI in assay [1], in assay [2], in [3], in assay [4], in assay [5] and in assay [6] was more than 100 µM in each case. Also, the TGI in assay [7], in [8] and in [9] was more than 100 µM each time.
For `CO[C@H](C(=O)O)[C@@H]1Cc2cc3cc(OC4CC(OC5CC(O)C(O)C(C)O5)C(O)C(C)O4)c(C)c(O)c3c(O)c2C(=O)[C@H]1OC1CC(OC2CC(OC3CC(C)(O)C(O)C(C)O3)C(O)C(C)O2)C(O)C(C)O1` (stereo partly specified), the GI50 in assay [1] is 0.285 µM; in assay [2] it was 0.132 µM; in assay [3], 1.06 µM; in assay [4], 0.28 µM; in [5], 0.375 µM; in assay [6], 0.159 µM. The GI50 in assay [7] is 0.179 µM; in assay [8], 0.108 µM; in [9] it was 0.637 µM. For the same molecule, the TGI was 2.57 µM in assay [1]; more than 32.5 µM in [2]; more than 32.5 µM in assay [3]; 2.04 µM in assay [4]; more than 32.5 µM in assay [5]; 0.868 µM in assay [6]. In addition, the TGI is more than 32.5 µM in assay [7], 0.496 µM in [8] and 5.33 µM in assay [9].
As to `Nc1ccc(C(=O)N/C(=C\c2cccc([N+](=O)[O-])c2)c2nc3c4c(ccc3[nH]2)C(=O)c2ccccc2C4=O)cc1`, the TGI in [1], in assay [2], in [4], in assay [5], in [6] and in [7] was more than 100 µM in each case. Moreover, the TGI in assay [8] was more than 100 µM; in [9], 7.64 µM.
In the case of `O=C1c2ccn(CCCCN3CCC(O)CC3)c2C(=O)c2c1c(O)c1ccccc1c2O`, the GI50 is 37.2 µM in assay [1]; 1.84 µM in assay [2]; 2.24 µM in [4]; 33.4 µM in [5]; 16.6 µM in [6]; 15.2 µM in assay [7]. Further, the results for the GI50 in [8] and in assay [9] were 2.13 µM and 2.4 µM, respectively. For the same molecule, the TGI in [1] is more than 66.2 µM; in assay [4] it was 4.95 µM; in assay [5] it was more than 66.8 µM; in [6], 96.2 µM; in [7], 34.9 µM; in [8] it was 5.36 µM. The TGI in assay [9] was found to be 11.9 µM.
Consider `Nc1c(-c2nc3ccccc3[nH]2)sc(=S)n1-c1ccc(Cl)cc1`, for which the TGI is more than 100 µM in assay [1]; more than 100 µM in assay [3]; 36.4 µM in assay [4]; more than 100 µM in assay [5]; 67.6 µM in [6]; 50.1 µM in assay [7]. Besides, the figures for the TGI in assay [8] and in assay [9] were 48.4 µM and 55.7 µM, respectively.
Turning to `CCOC(=O)NC(=O)c1c[nH]c(=O)[nH]c1=O`, the TGI in [1], in assay [2], in assay [3], in assay [4], in [5] and in assay [6] was more than 100 µM in each case. Besides, the TGI in assay [7], in assay [8] and in [9] was more than 100 µM in each case.
Take `C1C[OH+]CC[OH+]CC[OH+]CC[OH+]CC[OH+]CC[OH+]1.[Cl-].[Nb+5]`: the GI50 in [1], in [2], in assay [3], in [4], in [6] and in assay [7] was more than 100 µM in each case. Besides, the GI50 is more than 100 µM in assay [8] and 68.6 µM in assay [9]. For the same molecule, the TGI in assay [1], in [2], in assay [3], in [4], in assay [6] and in [7] was more than 100 µM throughout. Further, the TGI in assay [8] and in [9] was more than 100 µM throughout.
With `CC(C)(C)OC(=O)N1N=NC2C3OC(CC3=O)C21` (stereo unspecified), the TGI in [1], in assay [2], in [4], in assay [5], in [7] and in assay [8] was more than 100 µM throughout. Besides, the TGI in assay [9] was more than 100 µM.

Values taken from PubChem BioAssay (NCI).
